# Experiments:
# [1] = test system: HCT116 xenograft tumors; test: HCT116 xenograft in nude mice; assay type: in vivo, female athymic nude BALB/c mice
# Description: Fig. 7 RA-V inhibits tumor growth and the expression of NF-κB target genes in a nude xenograft model. a–d Inhibition of the growth of HCT116 and HepG2 xenograft tumors by RA-V. Female athymic nude BALB/c mice bearing HCT116 (n = 8) or HepG2 (n = 7) xenograft tumors were intravenously injected with various concentrations of RA-V micelles or control micelles every other day. 5-FU (10 mg/kg) group as positive control. Effects of RA-V on the growth curves of subcutaneoue xenografts of HCT116 (a) and HepG2 (b) and effects on the tumor weight in the HCT116 (c) and HepG2 (d) models. e–f Tumors removed were photographed. g–h The expression of the NF-κB target genes, IL-8, MCP-1, and CXCL-1, in HCT116 (g) and HepG2 (h) tumor tissue from vehicle- and various concentrations of RA-V-treated group was determined by quantitative RT-PCR and normalized to GADPH expression. *, p < 0.05; **, p < 0.01; ***, p < 0.001
# In total, 2 × 10^6 HCT116 or 3 × 10^6 HepG2 cells were subcutaneously injected into the right dorsal flank of 6- to 8-week-old female athymic nude BALB/c mice. After tumor volumes reached 100 mm^3, the tumor-bearing mice were randomly divided into several groups. The mice bearing HCT116 (n = 8) or HepG2 xenograft tumors (n = 7) were received the intravenous injection of vehicle micelles or various concentrations of RA-V micelles every other day. 5-FU (10 mg/kg) group as positive control. Body weights and tumor volumes were recorded every other day. Tumor volumes were calculated using the following formula: tumor volume (mm^3) = 0.52 × length × width^2. At the end of the experiments, the mice were killed. Tumor xenografts of each mouse were removed and weighed. Part of each tumor tissue was stored at liquid nitrogen for quantitative RT-PCR analysis. […] Serum alanine transaminase(ALT), aspartate transaminase(AST), and creatine kinase(CK) were determined using relevant kits (Nanjing Jiancheng) according to the manufacturer’s specific instructions.
# [2] = test system: p65 phosphorylation and IκBα phosphorylation; test: Western blot in HEK293T cells transfected with TRAF2, MyD88 or IKKβ; assay type: cell-based; conditions: RA-V 48 h
# Description: To determine where RA-V acts in this pathway, TRAF2, MyD88, IKKβ, or p65 plasmid was transiently transfected into HEK293T cells together with the 5 × κB-lucieferase and pTK-Renilla reporters. […] Western blots were performed to investigate the effect of RA-V on NF-κB-associated proteins in HEK293T cells transfected with the TRAF2, MyD88, or IKKβ plasmid. […] Moreover, we used a computational method to predict where RA-V is likely to act in this pathway.
# Fig. 3 RA-V represses NF-κB activation upstream of the IKK protein complex. a RA-V inhibited the TRAF2- and MyD88-induced expression of the NF-κB reporter in a dose-dependent manner. The indicated plasmids were transfected into HEK293T cells together with the 5 × κB-luciferase and pTK-Renilla reporters. Twenty-four hours after transfection, the cells were incubated with various concentrations of RA-V for 48 h before luciferase assays were performed. b RA-V inhibited TRAF2- and MyD88-induced p65 phosphorylation and IκBα phosphorylation in a dose-dependent manner. […]
# For western blot analysis, the samples were equally subjected to sodium dodecyl sulfate polyacrylamide gel electrophoresis (SDS-PAGE) and transferred to polyvinylidene difluoride membranes (Millipore). […] The protein bands were detected with the SuperSignal West Pico Chemiluminescent Substrate (Pierce).
# [3] = HCT116, n = 8, RA-V micelles i.v. every other day, vs control
substance,measurement,setting,value
RA-V,tumor growth rate (tumor volume),[1]; [3],significantly reduced
same,tumor weight,[1]; [3],obviously lower
same,"expression of IL-8, MCP-1, and CXCL-1 in tumor tissue","[1]; HCT116 xenograft, quantitative RT-PCR",remarkable decreased
same,p65 and IκBα phosphorylation in cells transfected with IKKβ plasmid,[2],no effect
same,p65 phosphorylation and IκBα phosphorylation in cells overexpressing TRAF2 or MyD88,[2],dose-dependently inhibited

# Reference: article PMC6006164, “Natural cyclopeptide RA-V inhibits the NF-κB signaling pathway by targeting TAK1” (Cell Death & Disease, 2018)
